# According to the supplement of paper PMC10307832:
# Columns and labels:
# Assay in all cases: relative viability (nuclei count vs DMSO), 5 days (fraction); higher = more cells survive
# UMC-11 = test system: UMC-11
# Method in brief: (§1)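 Values are medians from duplicate plates. Each reflects relative viability, defined as the nuclei count of treated wells over that of vehicle wells. Lung cancer cell lines in 1536-well plates were pin-tool dosed one day after seeding with one drug alone or with a fixed anchor-drug dose plus five library-drug doses (not always all listed) in √10 steps, then fixed, stained and imaged at 4× after 5 days.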
# SK-LU-1 = test system: SK-LU-1
# Method in brief: as §1
# NCI-H1944 = test system: NCI-H1944
# Method in brief: as §1
# LU99A = test system: LU99A
# Method in brief: as §1
# LC-2-ad = test system: LC-2-ad
# Method in brief: as §1
# NCI-H1792 = test system: NCI-H1792
# Method in brief: as §1
# HOP-62 = test system: HOP-62
# Method in brief: as §1
# NCI-H2085 = test system: NCI-H2085
# Method in brief: as §1
# NCI-H1793 = test system: NCI-H1793
# Method in brief: as §1
# LXF-289 = test system: LXF-289
# Method in brief: as §1
# NCI-H358 = test system: NCI-H358
# Method in brief: as §1
# EPLC-272H = test system: EPLC-272H
# Method in brief: as §1
# NCI-H2170 = test system: NCI-H2170
# Method in brief: as §1
# HCC-366 = test system: HCC-366
# Method in brief: as §1
# NCI-H2342 = test system: NCI-H2342
# Method in brief: as §1
# A-427 = test system: A-427
# Method in brief: as §1
# NCI-H1915 = test system: NCI-H1915
# Method in brief: as §1
# LCLC-97TM1 = test system: LCLC-97TM1
# Method in brief: as §1
# HCC-78 = test system: HCC-78
# Method in brief: as §1
# NCI-H1975 = test system: NCI-H1975
# Method in brief: as §1
# SW 900 = test system: SW 900
# Method in brief: as §1
# NCI-H460 = test system: NCI-H460
# Method in brief: as §1
# NCI-H1755 = test system: NCI-H1755
# Method in brief: as §1
# COR-L 105 = test system: COR-L 105
# Method in brief: as §1
structure (smiles),measurement,setting,value
COc1cc(N2CCC(C(N)=O)CC2)ccc1Nc1nc(N)c(Cl)c(Nc2ccccc2S(=O)(=O)C(C)C)n1 [HG-5-88-01] + COc1cccc2cc(-c3nc([C@H]4CC[C@H](C(=O)O)CC4)n4ncnc(N)c34)[nH]c12 [OSI-027] (partner 0.5 µM),relative viability,UMC-11; first compound 0.04 µM,0.347
same,relative viability,UMC-11; first compound 0.1265 µM,0.521
same,relative viability,UMC-11; first compound 1.265 µM,0.464
same,relative viability,UMC-11; first compound 4 µM,0.334
same,relative viability,SK-LU-1; first compound 0.04 µM,0.292
same,relative viability,SK-LU-1; first compound 0.1265 µM,0.34
same,relative viability,SK-LU-1; first compound 0.4 µM,0.278
same,relative viability,SK-LU-1; first compound 1.265 µM,0.235
same,relative viability,SK-LU-1; first compound 4 µM,0.174
same,relative viability,NCI-H1944; first compound 0.04 µM,0.386
same,relative viability,NCI-H1944; first compound 0.1265 µM,0.391
same,relative viability,NCI-H1944; first compound 0.4 µM,0.422
same,relative viability,NCI-H1944; first compound 1.265 µM,0.297
same,relative viability,NCI-H1944; first compound 4 µM,0.251
same,relative viability,LU99A; first compound 0.04 µM,0.245
same,relative viability,LU99A; first compound 0.1265 µM,0.316
same,relative viability,LU99A; first compound 0.4 µM,0.286
same,relative viability,LU99A; first compound 1.265 µM,0.279
same,relative viability,LU99A; first compound 4 µM,0.263
same,relative viability,LC-2-ad; first compound 0.04 µM,0.819
same,relative viability,LC-2-ad; first compound 0.1265 µM,0.944
same,relative viability,LC-2-ad; first compound 0.4 µM,0.826
same,relative viability,LC-2-ad; first compound 1.265 µM,0.558
same,relative viability,LC-2-ad; first compound 4 µM,0.416
same,relative viability,NCI-H1792; first compound 0.04 µM,0.809
same,relative viability,NCI-H1792; first compound 0.1265 µM,0.823
same,relative viability,NCI-H1792; first compound 0.4 µM,0.794
same,relative viability,NCI-H1792; first compound 4 µM,0.574
same,relative viability,HOP-62; first compound 0.04 µM,0.726
same,relative viability,HOP-62; first compound 0.1265 µM,0.949
same,relative viability,HOP-62; first compound 0.4 µM,0.828
same,relative viability,HOP-62; first compound 1.265 µM,0.856
same,relative viability,HOP-62; first compound 4 µM,0.737
same,relative viability,NCI-H2085; first compound 0.04 µM,0.713
same,relative viability,NCI-H2085; first compound 0.1265 µM,0.872
same,relative viability,NCI-H2085; first compound 0.4 µM,0.615
same,relative viability,NCI-H2085; first compound 1.265 µM,0.384
same,relative viability,NCI-H2085; first compound 4 µM,0.321
same,relative viability,NCI-H1793; first compound 0.1265 µM,0.269
same,relative viability,NCI-H1793; first compound 0.4 µM,0.236
same,relative viability,NCI-H1793; first compound 4 µM,0.177
same,relative viability,LXF-289; first compound 0.04 µM,0.755
same,relative viability,LXF-289; first compound 0.1265 µM,0.815
same,relative viability,LXF-289; first compound 0.4 µM,0.77
same,relative viability,LXF-289; first compound 1.265 µM,0.635
same,relative viability,LXF-289; first compound 4 µM,0.337
same,relative viability,NCI-H358; first compound 0.04 µM,0.692
same,relative viability,NCI-H358; first compound 0.1265 µM,0.673
same,relative viability,NCI-H358; first compound 0.4 µM,0.588
same,relative viability,NCI-H358; first compound 1.265 µM,0.234
same,relative viability,NCI-H358; first compound 4 µM,0.133
same,relative viability,EPLC-272H; first compound 0.04 µM,0.31
same,relative viability,EPLC-272H; first compound 0.1265 µM,0.278
same,relative viability,EPLC-272H; first compound 0.4 µM,0.294
same,relative viability,EPLC-272H; first compound 1.265 µM,0.242
same,relative viability,EPLC-272H; first compound 4 µM,0.0931
same,relative viability,NCI-H2170; first compound 0.04 µM,0.716
same,relative viability,NCI-H2170; first compound 0.1265 µM,0.764
same,relative viability,NCI-H2170; first compound 0.4 µM,0.721
same,relative viability,NCI-H2170; first compound 1.265 µM,0.238
same,relative viability,NCI-H2170; first compound 4 µM,0.601
same,relative viability,HCC-366; first compound 0.04 µM,1.02
same,relative viability,HCC-366; first compound 0.1265 µM,0.941
same,relative viability,HCC-366; first compound 0.4 µM,1.02
same,relative viability,HCC-366; first compound 1.265 µM,0.577
same,relative viability,HCC-366; first compound 4 µM,0.6
same,relative viability,NCI-H2342; first compound 0.04 µM,0.607
same,relative viability,NCI-H2342; first compound 0.1265 µM,0.527
same,relative viability,NCI-H2342; first compound 0.4 µM,0.611
same,relative viability,NCI-H2342; first compound 1.265 µM,0.485
same,relative viability,NCI-H2342; first compound 4 µM,0.563
same,relative viability,A-427; first compound 0.04 µM,0.441
same,relative viability,A-427; first compound 0.1265 µM,0.533
same,relative viability,A-427; first compound 0.4 µM,0.524
same,relative viability,A-427; first compound 1.265 µM,0.416
same,relative viability,A-427; first compound 4 µM,0.283
same,relative viability,NCI-H1915; first compound 0.04 µM,0.63
same,relative viability,NCI-H1915; first compound 0.1265 µM,0.625
same,relative viability,NCI-H1915; first compound 0.4 µM,0.69
same,relative viability,NCI-H1915; first compound 1.265 µM,0.697
same,relative viability,NCI-H1915; first compound 4 µM,0.527
same,relative viability,LCLC-97TM1; first compound 0.04 µM,0.445
same,relative viability,LCLC-97TM1; first compound 0.1265 µM,0.521
same,relative viability,LCLC-97TM1; first compound 0.4 µM,0.238
same,relative viability,LCLC-97TM1; first compound 1.265 µM,0.305
same,relative viability,LCLC-97TM1; first compound 4 µM,0.131
same,relative viability,HCC-78; first compound 0.04 µM,0.359
same,relative viability,HCC-78; first compound 0.1265 µM,0.293
same,relative viability,HCC-78; first compound 0.4 µM,0.349
same,relative viability,HCC-78; first compound 1.265 µM,0.27
same,relative viability,HCC-78; first compound 4 µM,0.301
same,relative viability,NCI-H1975; first compound 0.04 µM,0.711
same,relative viability,NCI-H1975; first compound 0.1265 µM,0.803
same,relative viability,NCI-H1975; first compound 0.4 µM,0.631
same,relative viability,NCI-H1975; first compound 1.265 µM,0.461
same,relative viability,NCI-H1975; first compound 4 µM,0.19
same,relative viability,SW 900; first compound 0.04 µM,0.505
same,relative viability,SW 900; first compound 0.1265 µM,0.646
same,relative viability,SW 900; first compound 0.4 µM,0.6
same,relative viability,SW 900; first compound 1.265 µM,0.57
same,relative viability,SW 900; first compound 4 µM,0.381
same,relative viability,NCI-H460; first compound 0.04 µM,0.604
same,relative viability,NCI-H460; first compound 0.1265 µM,0.655
same,relative viability,NCI-H460; first compound 0.4 µM,0.543
same,relative viability,NCI-H460; first compound 1.265 µM,0.344
same,relative viability,NCI-H460; first compound 4 µM,0.287
same,relative viability,NCI-H1755; first compound 0.04 µM,0.722
same,relative viability,NCI-H1755; first compound 0.1265 µM,0.731
same,relative viability,NCI-H1755; first compound 0.4 µM,0.677
same,relative viability,NCI-H1755; first compound 1.265 µM,0.686
same,relative viability,NCI-H1755; first compound 4 µM,0.434
same,relative viability,COR-L 105; first compound 0.04 µM,0.616
same,relative viability,COR-L 105; first compound 0.1265 µM,0.776
same,relative viability,COR-L 105; first compound 0.4 µM,0.531
same,relative viability,COR-L 105; first compound 1.265 µM,0.371
same,relative viability,COR-L 105; first compound 4 µM,0.316
